PMC2997912 (Molecular pharmaceutics, 2010)

Target: T1, hASBT (Homo sapiens, UniProt Q12908)
T1 sequence (Q12908 1-348): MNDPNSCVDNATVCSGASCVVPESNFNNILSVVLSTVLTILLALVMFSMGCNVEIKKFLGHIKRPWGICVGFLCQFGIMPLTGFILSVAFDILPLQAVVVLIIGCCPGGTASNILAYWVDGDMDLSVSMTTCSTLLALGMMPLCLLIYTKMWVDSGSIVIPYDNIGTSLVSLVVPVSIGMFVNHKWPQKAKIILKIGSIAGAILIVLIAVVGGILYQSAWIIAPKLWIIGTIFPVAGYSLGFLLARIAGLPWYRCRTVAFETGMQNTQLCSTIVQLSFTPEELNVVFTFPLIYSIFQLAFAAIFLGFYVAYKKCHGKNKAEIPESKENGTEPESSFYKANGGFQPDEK
Experiment: Conjugate uptake into hASBT-MDCK cells in the presence of sodium
Type: cell-based

In the case of `C[C@H](CCC(=O)NCCS(=O)(=O)O)[C@H]1CC[C@H]2[C@@H]3[C@H](O)C[C@@H]4C[C@H](O)CC[C@]4(C)[C@H]3C[C@H](O)[C@]12C` [taurocholate, Taurocholate], the Vmax was 0.699 pmol/cm^2/s.
